Here are results for 26 molecules from patent US11612606B2, “8-aminoisoquinoline compounds and uses thereof” (priority 2018, dated 2023).

SMILES strings stand for the structures. Where a name gives a salt, the structure may show the parent alone. Where only a bound is given, the exact number is not on record here.

One may read the Ki as the dissociation constant of the complex between target and ligand, obtained from inhibition or displacement.

The experiment deals with HPK full length, T165E S171E (Homo sapiens (Human), UniProt Q92918, S171E/T165E). Description: HPK1-FL HTRF enzymatic assay ("HTRF"). It counts as biochemical. Conditions: ATP 1 mM, read-out: HPK1 Ki. Summed up: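 Full-length HPK1 (T165E/S171E) was preincubated 30 min with compound, then reacted 60 min with biotin-SLP-76 and 1 mM ATP. Phospho-SLP-76 was detected by HTRF (Eu-anti-pSLP76 antibody, SA-XL665) after a further 60 min.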
Chain of HPK full length, T165E S171E (Q92918 whole entry T165E/S171E, looked up): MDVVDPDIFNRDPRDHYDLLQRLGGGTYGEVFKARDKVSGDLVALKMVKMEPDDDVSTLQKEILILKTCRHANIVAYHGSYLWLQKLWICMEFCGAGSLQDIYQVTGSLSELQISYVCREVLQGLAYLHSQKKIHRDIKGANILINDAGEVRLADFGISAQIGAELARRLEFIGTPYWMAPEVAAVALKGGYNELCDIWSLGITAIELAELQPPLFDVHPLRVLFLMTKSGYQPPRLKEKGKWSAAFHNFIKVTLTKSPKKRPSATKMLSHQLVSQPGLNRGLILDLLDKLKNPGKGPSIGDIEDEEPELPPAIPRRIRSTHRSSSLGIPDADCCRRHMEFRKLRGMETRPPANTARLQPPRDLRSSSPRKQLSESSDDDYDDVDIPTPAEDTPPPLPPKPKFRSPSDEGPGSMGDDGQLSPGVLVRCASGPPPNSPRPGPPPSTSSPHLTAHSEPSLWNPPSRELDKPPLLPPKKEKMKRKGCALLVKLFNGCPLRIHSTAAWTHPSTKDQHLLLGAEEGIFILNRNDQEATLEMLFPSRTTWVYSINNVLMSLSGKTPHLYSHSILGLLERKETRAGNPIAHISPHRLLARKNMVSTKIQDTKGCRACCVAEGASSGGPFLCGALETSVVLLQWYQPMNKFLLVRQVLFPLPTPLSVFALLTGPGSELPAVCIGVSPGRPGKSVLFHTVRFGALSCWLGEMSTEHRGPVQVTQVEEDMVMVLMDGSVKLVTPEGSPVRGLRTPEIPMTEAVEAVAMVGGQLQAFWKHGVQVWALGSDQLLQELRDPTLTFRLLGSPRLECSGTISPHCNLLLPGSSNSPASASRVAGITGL
As for `Cc1c(-c2cc3cc(NC(=O)O[C@@H]4CCOC4)ncc3c(N)c2F)cnc2c1NC[C@@H](F)O2` (single isomer, unassigned) [Compound 518a], the inhibition constant (Ki) came out at 0.069 nM.

Take `Cc1c(-c2cc3cc(NC(=O)O[C@H]4C[C@](C)(C#N)C4)ncc3c(N)c2F)cnc2c1NCCO2` [Compound 537b, (1r,3r)-3-Cyano-3-methylcyclobutyl (8-amino-7-fluoro-6-(8-methyl-2,3-dihydro-1H-pyrido[2,3-b][1,4]oxazin-7-yl)isoquinolin-3-yl)carbamate]: the inhibitory constant (Ki) was less than 0.013 nM. Regarding `Cc1c(-c2cc3cc(NC(=O)O[C@H]4CCN(CC(F)F)C[C@H]4F)ncc3c(N)c2F)cnc2c1NCCO2` (single isomer, unassigned) [Compound 566b], the Ki came to 0.149 nM. In the case of `CC(=O)O[C@]1(C)C[C@H](OC(=O)Nc2cc3cc(-c4cnc5c(c4C)NCCO5)c(F)c(N)c3cn2)C1` [Compound 529b, (1s,3s)-3-(((8-Amino-7-fluoro-6-(8-methyl-2,3-dihydro-1H-pyrido[2,3-b][1,4]oxazin-7-yl)isoquinolin-3-yl)carbamoyl)oxy)-1-methylcyclobutyl acetate], the inhibition constant Ki came to 0.019 nM. Consider `CO[C@]1(C)C[C@H](OC(=O)Nc2cc3cc(-c4cnc5c(c4C)NCCO5)c(F)c(N)c3cn2)C1` [Compound 528a, (1s,3s)-3-Methoxy-3-methyl cyclobutyl (8-amino-7-fluoro-6-(8-methyl-2,3-dihydro-1H-pyrido[2,3-b][1,4]oxazin-7-yl)isoquinolin-3-yl)carbamate], for which the inhibition constant Ki was less than 0.013 nM.

As for `Cc1c(-c2cc3cc(NC(=O)O[C@@H](C)CO)ncc3c(N)c2F)cnc2c1NCCO2` (single isomer, unassigned) [Compound 530b, (5)-1-Hydroxypropan-2-yl (8-amino-7-fluoro-6-(8-methyl-2,3-dihydro-1H-pyrido[2,3-b][1,4]oxazin-7-yl)isoquinolin-3-yl)carbamate], the Ki was 0.11 nM.

Consider `CC(=O)N1CC[C@H](OC(=O)Nc2cc3cc(-c4cnc5c(c4C)NCCO5)c(F)c(N)c3cn2)[C@H](F)C1` (single isomer, unassigned) [Compound 437a], for which the Ki is less than 0.013 nM.

As for `CO[C@@H]1COC[C@H]1OC(=O)Nc1cc2cc(-c3cnc4c(c3C)NCCO4)c(F)c(N)c2cn1` (single isomer, unassigned) [Compound 546b], the Ki stood at 0.051 nM. For `Cc1c(-c2cc3cc(NC(=O)O[C@@H]4CCN(CC(F)F)C[C@@H]4F)ncc3c(N)c2F)cnc2c1NCCO2` (single isomer, unassigned) [Compound 566a] the value was 0.293 nM; for `Cc1c(-c2cc3cc(NC(=O)O[C@H]4CC[C@@](C)(O)C4)ncc3c(N)c2F)cnc2c1NCCO2` (single isomer, unassigned) [Compound 533c, hydrochloride], 0.014 nM. For `Cc1c(-c2cc3cc(NC(=O)OC4CCN(C)CC4(C)C)ncc3c(N)c2F)cnc2c1NCCO2` (centres unmarked) [Compound 435, (1,3,3-Trimethyl-4-piperidyl) N-[8-amino-7-fluoro-6-(8-methyl-2,3-dihydro-1H-pyrido[2,3-b][1,4]oxazin-7-yl)-3-isoquinolyl]carbamate], the Ki is 0.187 nM. With `Cc1c(-c2cc3cc(NC(=O)O[C@H]4C[C@@H](C#N)C4)ncc3c(N)c2F)cnc2c1NCCO2` [Compound 484a, (1s,3s)-3-Cyanocyclobutyl (8-amino-7-fluoro-6-(8-methyl-2,3-dihydro-1H-pyrido[2,3-b][1,4]oxazin-7-yl)isoquinolin-3-yl)carbamate], the Ki is less than 0.013 nM. As to `Cc1c(-c2cc3cc(NC(=O)O[C@H]4C[C@@H](F)C4)ncc3c(N)c2F)cnc2c1NCCO2` [Compound 541a, (1s,3s)-3-Fluorocyclobutyl (8-amino-7-fluoro-6-(8-methyl-2,3-dihydro-1H-pyrido[2,3-b][1,4]oxazin-7-yl)isoquinolin-3-yl)carbamate hydrochloride], the inhibitory constant (Ki) stood at 0.014 nM.

For the molecule `Cc1c(-c2cc3cc(NC(=O)O[C@H]4C[C@@H](C(C)(C)O)C4)ncc3c(N)c2F)cnc2c1NCCO2` [Compound 574b, (1s,3s)-3-(2-hydroxypropan-2-yl)cyclobutyl (8-amino-7-fluoro-6-(8-methyl-2,3-dihydro-1H-pyrido[2,3-b][1,4]oxazin-7-yl)isoquinolin-3-yl)carbamate], the inhibitory constant (Ki) was less than 0.013 nM. For `Cc1c(-c2cc3cc(NC(=O)O[C@@H]4COC[C@H]4C)ncc3c(N)c2F)cnc2c1NC(=O)CO2` (single isomer, unassigned) [Compound 558b, hydrochloride] the value was 3.75 nM. Regarding `Cc1c(-c2cc3cc(NC(=O)OC4CN(C(=O)[C@@H]5C[C@H]5F)C4)ncc3c(N)c2F)cnc2c1NCCC2` (single isomer, unassigned) [Compound 531b], the Ki is 0.152 nM. On to `Cc1c(-c2cc3cc(NC(=O)O[C@@H]4COCCN(C)C4)ncc3c(N)c2F)cnc2c1NCCO2` (single isomer, unassigned) [Compound 440b], for which the inhibitory constant (Ki) came to 0.277 nM. In the case of `Cc1c(-c2cc3cc(NC(=O)O[C@H]4CCCN(C)C4)ncc3c(N)c2F)cnc2c1NCCO2` [Compound 416b, (5)-1-Methylpiperidin-3-yl (8-amino-7-fluoro-6-(8-methyl-2,3-dihydro-1H-pyrido[2,3-b][1,4]oxazin-7-yl)isoquinolin-3-yl)carbamate], the inhibition constant Ki turned out to be 0.075 nM. On to `Cc1c(-c2cc3cc(NC(=O)O[C@@H]4CCOC4)ncc3c(N)c2F)cnc2c1NC[C@H](F)O2` (single isomer, unassigned) [Compound 518b], for which the inhibition constant Ki came out at 0.044 nM.

Turning to `Cc1c(-c2cc3cc(NC(=O)N[C@H]4CCOC4)ncc3c(N)c2F)cnc2c1NCCO2` (single isomer, unassigned) [Compound 722b], the Ki was less than 0.013 nM. Consider `Cc1c(-c2cc3cc(NC(=O)O[C@H]4C[C@H](CO)C4)ncc3c(N)c2F)cnc2c1NCCO2` [Compound 571a, (1r,3r)-3-(Hydroxymethyl)cyclobutyl (8-amino-7-fluoro-6-(8-methyl-2,3-dihydro-1H-pyrido[2,3-b][1,4]oxazin-7-yl)isoquinolin-3-yl)carbamate], for which the Ki stood at 0.014 nM. As to `Cc1c(-c2cc3cc(NC(=O)O[C@@H]4CN(C)C(=O)C4(C)C)ncc3c(N)c2F)cnc2c1NCCO2` (single isomer, unassigned) [Compound 480a], the Ki was determined as 0.034 nM.

Consider `Cc1c(-c2cc3cc(NC(=O)O[C@H]4CN(C)C[C@@H]4C)ncc3c(N)c2F)cnc2c1NCCO2` (single isomer, unassigned) [Compound 442d], for which the Ki stood at 0.046 nM. In the case of `Cc1c(-c2cc3cc(NC(=O)O[C@H]4C[C@@H](N5CC(F)C5)C4)ncc3c(N)c2F)cnc2c1NCCO2` [Compound 525a, (1s,3s)-3-(3-Fluoroazetidin-1-yl)cyclobutyl (8-amino-7-fluoro-6-(8-methyl-2,3-dihydro-1H-pyrido[2,3-b][1,4]oxazin-7-yl)isoquinolin-3-yl)carbamate], the inhibition constant Ki was less than 0.013 nM.

With `Cc1c(-c2cc3cc(NC(=O)O[C@H]4CN(C)C[C@@H]4F)ncc3c(N)c2F)cnc2c1NCCO2` [Compound 452a, (3S,4S)-4-Fluoro-1-methylpyrrolidin-3-yl (8-amino-7-fluoro-6-(8-methyl-2,3-dihydro-1H-pyrido[2,3-b][1,4]oxazin-7-yl)isoquinolin-3-yl)carbamate], the Ki worked out at 0.03 nM.

For the molecule `Cc1c(-c2cc3cc(NC(=O)OC4CC(O)C4)ncc3c(N)c2F)cnc2c1NC[C@@H](C)C2` (single isomer, unassigned) [Compound 560a], the Ki was found to be 0.019 nM.
